In patent EP2486923B1, “Histone deacetylase (HDAC) inhibiting compounds and method of making same” (Dr. Felix Jäger und Dr. Stefan Drinkuth Laborgemeinschaft …, priority 2011, dated 2012):
pIC50: −log10 of the molar value. Where two headings read alike, the source gives them in different places.

Experiments:
Assay in all cases: Two-step fluorescence assay for determination of IC50
Type in all cases: biochemical
HDAC1 = HDAC1 (Homo sapiens, UniProt Q13547); settings: ε-acetylated lysine substrate, trypsin release of 7-amino-4-methylcoumarin; four parameter fit; read-out: IC50 values HDAC1
Chain of HDAC1 (Q13547 whole entry): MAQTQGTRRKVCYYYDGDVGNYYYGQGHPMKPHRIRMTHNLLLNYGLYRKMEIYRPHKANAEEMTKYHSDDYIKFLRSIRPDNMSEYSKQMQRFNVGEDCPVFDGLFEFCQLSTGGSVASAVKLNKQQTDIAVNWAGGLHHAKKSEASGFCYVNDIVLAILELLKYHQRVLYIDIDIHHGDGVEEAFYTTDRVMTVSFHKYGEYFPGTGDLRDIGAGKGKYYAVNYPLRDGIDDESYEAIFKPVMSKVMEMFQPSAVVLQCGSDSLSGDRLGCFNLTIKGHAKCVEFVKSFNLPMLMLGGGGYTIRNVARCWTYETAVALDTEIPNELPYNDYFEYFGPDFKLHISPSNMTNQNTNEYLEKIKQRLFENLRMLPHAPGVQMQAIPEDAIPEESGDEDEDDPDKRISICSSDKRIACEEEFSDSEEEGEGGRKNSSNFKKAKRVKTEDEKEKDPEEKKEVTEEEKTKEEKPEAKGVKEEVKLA
Protocol: (§1) In order to evaluate the inhibitory characteristics of example compounds of the invention, IC50 values were determined for such compounds. […] A two-step assay was used for this purpose.
(§2) To obtain the IC50 value for an individual compound/HDAC pair, a two-step assay can be performed based on a fluorescence signal. In principle, an ε-acetylated lysine substrate is deacetylated by histone-deacetylases in the first step. Trypsin releases detectable 7-amino-4-methylcoumarin (ex = excitation wavelength: 390 nm, em = emission wavelength: 460 nm) by cleaving the substrate at the deacetylated lysine in a subsequent reaction^[9]. The enzyme activity is inhibited by a suitable HDACi.
(§3) The obtained data are interpreted using a four parameter fit. Based on this fit, the IC50 value can be estimated. Analysis ot the data and calculation of the IC50 values was accomplished using a four-parameter logistic model protocol as previously described by Vølund^[16]. For nonlinear fits the Levenberg-Marquardt algorithm was applied^[17],[18]. […] Table 1: IC50 values in µM for synthesized compounds of the invention with a perfluorinated linker. […] HDAH = HDAC-like amidohydrolase

HDAC6 = target: T1, HDAC6 (Homo sapiens, UniProt Q9UBN7); settings: ε-acetylated lysine substrate, trypsin release of 7-amino-4-methylcoumarin; four parameter fit; read-out: IC50 values HDAC6
T1 sequence (Q9UBN7 1-1215): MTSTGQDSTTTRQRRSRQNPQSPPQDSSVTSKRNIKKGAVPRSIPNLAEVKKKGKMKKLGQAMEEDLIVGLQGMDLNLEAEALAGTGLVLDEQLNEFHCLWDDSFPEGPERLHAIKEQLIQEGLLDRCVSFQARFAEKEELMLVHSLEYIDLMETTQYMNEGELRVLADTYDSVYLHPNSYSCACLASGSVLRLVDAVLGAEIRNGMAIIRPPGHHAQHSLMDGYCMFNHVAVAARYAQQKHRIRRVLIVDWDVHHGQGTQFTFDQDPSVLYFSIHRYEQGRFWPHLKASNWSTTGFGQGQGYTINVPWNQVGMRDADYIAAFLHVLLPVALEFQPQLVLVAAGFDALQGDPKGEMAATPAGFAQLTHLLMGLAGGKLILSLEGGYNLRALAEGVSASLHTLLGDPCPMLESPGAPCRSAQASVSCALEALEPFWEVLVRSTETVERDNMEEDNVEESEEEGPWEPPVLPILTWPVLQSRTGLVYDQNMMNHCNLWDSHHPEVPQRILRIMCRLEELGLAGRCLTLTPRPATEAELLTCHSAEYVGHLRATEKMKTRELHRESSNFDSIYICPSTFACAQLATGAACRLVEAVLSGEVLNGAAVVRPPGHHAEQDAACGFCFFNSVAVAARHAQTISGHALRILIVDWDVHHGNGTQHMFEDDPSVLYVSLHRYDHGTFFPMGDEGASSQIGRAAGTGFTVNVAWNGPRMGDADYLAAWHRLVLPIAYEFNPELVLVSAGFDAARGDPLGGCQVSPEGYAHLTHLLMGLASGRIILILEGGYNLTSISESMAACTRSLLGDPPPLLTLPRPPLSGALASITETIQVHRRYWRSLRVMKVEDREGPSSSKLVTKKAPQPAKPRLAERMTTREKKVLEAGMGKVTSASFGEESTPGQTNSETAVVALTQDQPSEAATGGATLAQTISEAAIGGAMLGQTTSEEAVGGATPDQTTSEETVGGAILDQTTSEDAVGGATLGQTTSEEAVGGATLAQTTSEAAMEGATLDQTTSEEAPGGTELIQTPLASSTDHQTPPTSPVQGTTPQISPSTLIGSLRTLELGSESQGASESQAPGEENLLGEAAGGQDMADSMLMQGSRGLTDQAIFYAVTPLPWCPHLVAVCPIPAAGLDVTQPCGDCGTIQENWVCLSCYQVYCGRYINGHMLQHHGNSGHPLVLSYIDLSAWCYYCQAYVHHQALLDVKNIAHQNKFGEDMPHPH
Protocol: as §1, §2, §3

HDAC7 = target: T2, HDAC7 (Homo sapiens, UniProt Q8WUI4); settings: ε-acetylated lysine substrate, trypsin release of 7-amino-4-methylcoumarin; four parameter fit; read-out: IC50 values HDAC7
T2 sequence (Q8WUI4 1-952): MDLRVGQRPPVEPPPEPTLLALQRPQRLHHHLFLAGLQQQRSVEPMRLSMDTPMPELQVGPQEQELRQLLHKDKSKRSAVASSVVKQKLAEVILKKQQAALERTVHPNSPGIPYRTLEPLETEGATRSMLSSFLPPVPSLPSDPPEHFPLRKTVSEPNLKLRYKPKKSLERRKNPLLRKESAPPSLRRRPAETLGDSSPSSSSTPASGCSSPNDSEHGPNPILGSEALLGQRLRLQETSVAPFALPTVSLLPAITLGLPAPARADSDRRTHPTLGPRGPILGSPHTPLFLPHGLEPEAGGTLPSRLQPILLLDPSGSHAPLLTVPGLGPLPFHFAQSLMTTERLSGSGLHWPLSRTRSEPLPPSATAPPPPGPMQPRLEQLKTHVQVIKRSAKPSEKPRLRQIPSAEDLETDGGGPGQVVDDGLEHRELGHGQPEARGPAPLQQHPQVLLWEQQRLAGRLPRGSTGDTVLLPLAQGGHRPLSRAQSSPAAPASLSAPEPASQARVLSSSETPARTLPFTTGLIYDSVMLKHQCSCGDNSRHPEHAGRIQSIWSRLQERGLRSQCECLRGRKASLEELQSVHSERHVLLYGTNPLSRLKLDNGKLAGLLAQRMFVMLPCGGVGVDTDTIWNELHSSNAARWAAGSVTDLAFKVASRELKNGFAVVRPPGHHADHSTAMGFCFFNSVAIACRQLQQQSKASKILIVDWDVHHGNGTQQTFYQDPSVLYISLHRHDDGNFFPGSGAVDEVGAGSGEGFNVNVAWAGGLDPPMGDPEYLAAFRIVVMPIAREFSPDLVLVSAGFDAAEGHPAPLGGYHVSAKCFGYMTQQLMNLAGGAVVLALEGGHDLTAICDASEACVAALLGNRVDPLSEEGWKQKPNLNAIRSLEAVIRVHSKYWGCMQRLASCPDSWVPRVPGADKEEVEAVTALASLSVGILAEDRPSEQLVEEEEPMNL
Protocol: as §1, §2, §3

HDAC8 = target: T3, HDAC8 (Homo sapiens, UniProt Q9BY41); settings: ε-acetylated lysine substrate, trypsin release of 7-amino-4-methylcoumarin; four parameter fit; read-out: IC50 values HDAC8
T3 sequence (Q9BY41 1-377): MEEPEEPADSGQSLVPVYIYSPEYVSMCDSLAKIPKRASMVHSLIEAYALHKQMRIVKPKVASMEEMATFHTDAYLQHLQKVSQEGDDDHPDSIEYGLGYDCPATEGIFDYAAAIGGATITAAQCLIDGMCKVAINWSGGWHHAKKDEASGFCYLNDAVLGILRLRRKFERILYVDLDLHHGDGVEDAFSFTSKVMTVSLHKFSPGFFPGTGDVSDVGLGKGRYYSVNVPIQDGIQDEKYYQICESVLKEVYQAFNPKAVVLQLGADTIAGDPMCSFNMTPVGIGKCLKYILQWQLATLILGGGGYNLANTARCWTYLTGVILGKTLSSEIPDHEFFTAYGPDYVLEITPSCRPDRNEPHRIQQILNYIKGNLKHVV
Protocol: as §1, §2, §3

HDAH = target: T4, HDAH (Alcaligenes sp., UniProt Q70I53)
T4 sequence (Q70I53 1-369): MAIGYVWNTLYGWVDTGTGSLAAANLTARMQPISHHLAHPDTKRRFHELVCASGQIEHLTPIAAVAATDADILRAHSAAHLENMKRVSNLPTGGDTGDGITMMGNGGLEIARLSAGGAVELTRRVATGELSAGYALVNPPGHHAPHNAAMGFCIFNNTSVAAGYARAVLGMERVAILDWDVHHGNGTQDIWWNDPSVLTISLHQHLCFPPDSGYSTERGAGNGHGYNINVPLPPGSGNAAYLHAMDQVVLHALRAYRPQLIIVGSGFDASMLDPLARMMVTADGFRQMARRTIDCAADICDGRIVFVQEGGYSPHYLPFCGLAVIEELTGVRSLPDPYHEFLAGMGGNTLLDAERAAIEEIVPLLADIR
Protocol: as §1, §2, §3

SMILES: N#Cc1ccc(NC(=O)C(F)(F)C(F)(F)C(F)(F)C(F)(F)C(F)(F)C(F)(F)C(=O)NO)cc1 [LU225 A, 2,2,3,3,4,4,5,5,6,6,7,7-Dodecafluorooctanedioic acid (4-cyanophenyl)amide hydroxyamide]
- pIC50 (HDAC1): 4.66
- pIC50 (HDAC6): < 4.00
- pIC50 (HDAC7): 4.27
- pIC50 (HDAC8): 4.13
- pIC50 (HDAH): 6.15

SMILES: O=C(NO)C(F)(F)C(F)(F)C(F)(F)C(F)(F)C(F)(F)C(F)(F)C(=O)Nc1ccc(-c2cn(-c3ccccc3)nn2)cc1 [LU 233, 2,2,3,3,4,4,5,5,6,6,7,7-Dodecafluorooctanedioic acid hydroxyamide {4-[1-phenyl-1H-(1,2,3)triazol-4-yl]phenyl}amide]
- pIC50 (HDAC1): < 4.00
- pIC50 (HDAC6): 5.01
- pIC50 (HDAC7): 4.37
- pIC50 (HDAC8): < 4.00
- pIC50 (HDAH; HDAC-like amidohydrolase, ε-acetylated lysine substrate, trypsin release of 7-amino-4-methylcoumarin, four parameter fit, read-out: IC50 values HDAH): 4.77
